Experimental data as given in ChEMBL document CHEMBL5550160, “Leveraging a rationally designed veliparib-based anilide eliciting anti-leukemic effects for the design of pH-responsive polymer nanoformulation” (Eur J Med Chem, 2024).
Active and inactive are the calls of the source. The rule behind the calls is not given here.

How the values were obtained:
[1] = molecular target: T1, Histone deacetylase 1 (Homo sapiens, UniProt Q13547); experiment: Inhibition of HDAC1 (unknown origin) using p53 residues 379 to 382 [RHKK(Ac)] as fluorogenic substrate assessed as residual activity at 1.23 x 10^-7M (reference value: 98.06%); conditions: dose 1.23 10^-7M
T1 sequence (Q13547 whole entry, the tested form may be a part): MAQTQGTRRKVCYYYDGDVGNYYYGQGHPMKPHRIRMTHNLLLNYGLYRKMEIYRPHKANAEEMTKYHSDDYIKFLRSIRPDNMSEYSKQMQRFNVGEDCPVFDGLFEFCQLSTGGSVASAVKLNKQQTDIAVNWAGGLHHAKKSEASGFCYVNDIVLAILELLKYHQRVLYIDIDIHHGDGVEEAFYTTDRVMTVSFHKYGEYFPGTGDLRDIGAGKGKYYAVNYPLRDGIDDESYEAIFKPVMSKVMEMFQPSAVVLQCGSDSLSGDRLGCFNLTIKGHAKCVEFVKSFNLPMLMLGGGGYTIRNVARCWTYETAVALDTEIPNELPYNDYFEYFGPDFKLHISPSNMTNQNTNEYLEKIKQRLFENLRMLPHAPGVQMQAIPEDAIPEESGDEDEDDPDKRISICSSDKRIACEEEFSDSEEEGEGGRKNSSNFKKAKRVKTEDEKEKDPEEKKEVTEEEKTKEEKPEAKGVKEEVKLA

[2] = molecular target: T2, Histone deacetylase 3 (Homo sapiens, UniProt O15379); experiment: Inhibition of HDAC3 (unknown origin) using p53 residues 379 to 382 [RHKK(Ac)] as fluorogenic substrate assessed as residual activity at 3.33 x 10^-6M (reference value: 103.08%); conditions: dose 3.33 10^-6M
T2 sequence (O15379 whole entry, the tested form may be a part): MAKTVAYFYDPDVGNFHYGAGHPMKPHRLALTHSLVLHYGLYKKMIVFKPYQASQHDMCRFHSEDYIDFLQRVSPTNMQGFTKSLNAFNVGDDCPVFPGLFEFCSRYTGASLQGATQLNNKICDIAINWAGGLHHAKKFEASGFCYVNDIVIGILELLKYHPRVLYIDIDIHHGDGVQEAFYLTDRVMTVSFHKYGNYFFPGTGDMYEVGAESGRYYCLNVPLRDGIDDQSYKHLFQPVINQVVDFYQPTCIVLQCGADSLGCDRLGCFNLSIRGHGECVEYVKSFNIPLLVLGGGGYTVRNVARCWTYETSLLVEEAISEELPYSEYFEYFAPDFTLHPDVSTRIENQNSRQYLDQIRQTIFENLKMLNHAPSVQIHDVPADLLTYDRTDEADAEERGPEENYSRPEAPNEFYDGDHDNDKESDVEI

[3] = test system: HL-60; experiment: Downregulation of HDAC1 protein expression in human HL-60 cells at 0.5 to 1 times IC50 by Western blot analysis; assay type: functional, cell-based
[4] = test system: HL-60; experiment: Downregulation of PARP-1 protein expression in human HL-60 cells by Western blot analysis; assay type: functional, cell-based
[5] = molecular target: T1, Histone deacetylase 1; experiment: Inhibition of HDAC1 (unknown origin) using p53 residues 379 to 382 [RHKK(Ac)] as fluorogenic substrate assessed as residual activity at 3.70 x 10^-7M (reference value: 98.06%); conditions: dose 3.7 10^-7M
[6] = molecular target: Histone deacetylase 4 (Homo sapiens) (UniProt P56524); experiment: Inhibition of HDAC4 (unknown origin) assessed as residual activity at 1 x 10^-5M (reference value: 98.90%); conditions: dose 1.0 10^-5M
Histone deacetylase 4 (Homo sapiens), sequence (P56524 whole entry): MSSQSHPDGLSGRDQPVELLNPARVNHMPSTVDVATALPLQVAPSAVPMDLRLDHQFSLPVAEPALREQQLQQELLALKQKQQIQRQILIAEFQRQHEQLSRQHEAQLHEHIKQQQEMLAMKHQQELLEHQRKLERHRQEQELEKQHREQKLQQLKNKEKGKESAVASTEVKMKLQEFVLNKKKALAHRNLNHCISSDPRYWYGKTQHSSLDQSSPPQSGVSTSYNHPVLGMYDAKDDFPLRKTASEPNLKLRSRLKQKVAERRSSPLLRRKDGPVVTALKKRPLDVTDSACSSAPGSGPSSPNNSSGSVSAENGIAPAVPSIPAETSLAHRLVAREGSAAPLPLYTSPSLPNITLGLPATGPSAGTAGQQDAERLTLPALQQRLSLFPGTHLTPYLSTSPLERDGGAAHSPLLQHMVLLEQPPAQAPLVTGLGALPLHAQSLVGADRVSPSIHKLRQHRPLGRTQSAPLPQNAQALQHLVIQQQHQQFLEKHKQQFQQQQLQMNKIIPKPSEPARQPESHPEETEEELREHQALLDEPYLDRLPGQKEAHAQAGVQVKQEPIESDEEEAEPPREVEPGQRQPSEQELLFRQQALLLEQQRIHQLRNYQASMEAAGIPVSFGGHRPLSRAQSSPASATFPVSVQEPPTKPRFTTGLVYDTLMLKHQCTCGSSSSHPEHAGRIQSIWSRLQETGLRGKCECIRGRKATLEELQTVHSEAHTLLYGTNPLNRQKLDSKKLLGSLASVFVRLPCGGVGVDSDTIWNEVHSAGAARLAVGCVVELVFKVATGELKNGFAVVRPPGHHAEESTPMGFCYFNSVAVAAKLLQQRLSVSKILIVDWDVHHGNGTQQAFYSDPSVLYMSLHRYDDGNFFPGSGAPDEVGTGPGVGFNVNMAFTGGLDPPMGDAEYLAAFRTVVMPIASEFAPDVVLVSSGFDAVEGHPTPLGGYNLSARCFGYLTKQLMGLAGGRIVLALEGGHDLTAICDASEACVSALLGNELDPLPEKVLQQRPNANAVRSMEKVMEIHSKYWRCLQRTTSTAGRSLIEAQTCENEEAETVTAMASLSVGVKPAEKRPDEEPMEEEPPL

[7] = molecular target: T3, Histone deacetylase 8 (Homo sapiens) (UniProt Q9BY41); experiment: Inhibition of HDAC8 (unknown origin) assessed as residual activity at 1.23 x 10^-7M (reference value: 100%); conditions: dose 1.23 10^-7M
T3 sequence (whole entry): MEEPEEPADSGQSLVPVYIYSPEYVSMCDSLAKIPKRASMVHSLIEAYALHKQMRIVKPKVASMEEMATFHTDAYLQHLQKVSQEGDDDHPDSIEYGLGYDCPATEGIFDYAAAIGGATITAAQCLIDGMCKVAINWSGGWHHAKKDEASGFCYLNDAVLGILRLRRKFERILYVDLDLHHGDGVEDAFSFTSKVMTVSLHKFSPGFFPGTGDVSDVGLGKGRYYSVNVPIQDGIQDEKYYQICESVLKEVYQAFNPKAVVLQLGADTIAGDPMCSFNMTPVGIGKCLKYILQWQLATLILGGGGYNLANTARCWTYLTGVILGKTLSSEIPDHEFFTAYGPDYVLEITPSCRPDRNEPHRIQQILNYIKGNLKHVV

[8] = molecular target: T1, Histone deacetylase 1; experiment: Inhibition of HDAC1 (unknown origin) using p53 residues 379 to 382 [RHKK(Ac)] as fluorogenic substrate
[9] = molecular target: T4, Histone deacetylase 2 (Homo sapiens, UniProt Q92769); experiment: Inhibition of HDAC2 (unknown origin)
T4 sequence (Q92769 whole entry, the tested form may be a part): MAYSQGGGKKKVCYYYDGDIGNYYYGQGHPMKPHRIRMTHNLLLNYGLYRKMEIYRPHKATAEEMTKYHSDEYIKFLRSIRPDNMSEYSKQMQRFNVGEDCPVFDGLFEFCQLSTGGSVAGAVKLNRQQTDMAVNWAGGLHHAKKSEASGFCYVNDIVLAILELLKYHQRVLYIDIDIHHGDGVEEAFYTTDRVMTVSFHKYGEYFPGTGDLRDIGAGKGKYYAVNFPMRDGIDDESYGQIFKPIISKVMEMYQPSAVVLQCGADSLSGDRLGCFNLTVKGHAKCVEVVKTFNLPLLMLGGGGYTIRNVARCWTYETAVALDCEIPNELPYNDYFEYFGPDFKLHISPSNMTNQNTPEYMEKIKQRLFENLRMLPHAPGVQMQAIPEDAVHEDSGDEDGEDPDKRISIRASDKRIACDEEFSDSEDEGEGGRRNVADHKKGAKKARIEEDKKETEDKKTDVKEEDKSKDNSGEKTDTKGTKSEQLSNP

[10] = test system: HL-60; experiment: Induction of apoptosis in human HL-60 cells assessed as DNA fragmentation at 0.5 to 1 times IC50 by DAPI staining based microscopic analysis; assay type: functional, cell-based
[11] = molecular target: T3, Histone deacetylase 8 (Homo sapiens); experiment: Inhibition of HDAC8 (unknown origin) assessed as residual activity at 1.37 x 10^-8M (reference value: 100%); conditions: dose 1.37 10^-8M
[12] = molecular target: Histone deacetylase 4 (Homo sapiens) (UniProt P56524); experiment: Inhibition of HDAC4 (unknown origin) assessed as residual activity at 1.23 x 10^-7M (reference value: 98.90%); conditions: dose 1.23 10^-7M
[13] = test system: HL-60; experiment: Upregulation of gammaH2AX protein expression in human HL-60 cells at 0.5 to 1 times IC50 by Western blot analysis; assay type: functional, cell-based
[14] = molecular target: T4, Histone deacetylase 2; experiment: Inhibition of HDAC2 (unknown origin) assessed as residual activity at 4.12 x 10^-8M (reference value: 99.81%); conditions: dose 4.12 10^-8M
[15] = molecular target: T5, Polyamine deacetylase HDAC10 (Homo sapiens) (UniProt Q969S8); experiment: Inhibition of HDAC10 (unknown origin) assessed as residual activity at 1.52 x 10^-9M (reference value: 101.54%); conditions: dose 1.52 10^-9M
T5 sequence (whole entry): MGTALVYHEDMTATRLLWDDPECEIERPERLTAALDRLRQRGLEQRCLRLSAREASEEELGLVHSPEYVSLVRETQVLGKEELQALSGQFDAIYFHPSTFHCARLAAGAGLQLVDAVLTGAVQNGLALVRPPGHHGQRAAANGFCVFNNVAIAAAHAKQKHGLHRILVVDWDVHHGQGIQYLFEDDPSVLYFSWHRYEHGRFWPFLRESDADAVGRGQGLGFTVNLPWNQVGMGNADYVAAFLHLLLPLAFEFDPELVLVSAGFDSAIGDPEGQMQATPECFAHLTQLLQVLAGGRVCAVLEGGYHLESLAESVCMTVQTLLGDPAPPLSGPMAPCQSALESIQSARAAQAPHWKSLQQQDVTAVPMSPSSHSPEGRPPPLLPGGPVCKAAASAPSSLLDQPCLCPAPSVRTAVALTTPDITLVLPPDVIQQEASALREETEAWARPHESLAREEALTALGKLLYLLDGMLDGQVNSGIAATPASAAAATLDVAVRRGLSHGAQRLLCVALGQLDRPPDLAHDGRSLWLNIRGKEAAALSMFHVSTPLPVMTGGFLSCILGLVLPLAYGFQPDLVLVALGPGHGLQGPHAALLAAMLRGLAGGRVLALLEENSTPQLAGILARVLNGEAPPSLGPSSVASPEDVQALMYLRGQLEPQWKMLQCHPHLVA

[16] = test system: HL-60; experiment: Downregulation of PARP-2 protein expression in human HL-60 cells by Western blot analysis; assay type: functional, cell-based
[17] = molecular target: T2, Histone deacetylase 3; experiment: Inhibition of HDAC3 (unknown origin) using p53 residues 379 to 382 [RHKK(Ac)] as fluorogenic substrate
[18] = molecular target: T3, Histone deacetylase 8 (Homo sapiens); experiment: Inhibition of HDAC8 (unknown origin) assessed as residual activity at 3.70 x 10^-7M (reference value: 100%); conditions: dose 3.7 10^-7M
[19] = molecular target: Histone deacetylase 5 (Homo sapiens) (UniProt Q9UQL6); experiment: Inhibition of HDAC5 (unknown origin) assessed as residual activity at 1.23 x 10^-7M (reference value: 100%); conditions: dose 1.23 10^-7M
Histone deacetylase 5 (Homo sapiens), sequence (Q9UQL6 whole entry): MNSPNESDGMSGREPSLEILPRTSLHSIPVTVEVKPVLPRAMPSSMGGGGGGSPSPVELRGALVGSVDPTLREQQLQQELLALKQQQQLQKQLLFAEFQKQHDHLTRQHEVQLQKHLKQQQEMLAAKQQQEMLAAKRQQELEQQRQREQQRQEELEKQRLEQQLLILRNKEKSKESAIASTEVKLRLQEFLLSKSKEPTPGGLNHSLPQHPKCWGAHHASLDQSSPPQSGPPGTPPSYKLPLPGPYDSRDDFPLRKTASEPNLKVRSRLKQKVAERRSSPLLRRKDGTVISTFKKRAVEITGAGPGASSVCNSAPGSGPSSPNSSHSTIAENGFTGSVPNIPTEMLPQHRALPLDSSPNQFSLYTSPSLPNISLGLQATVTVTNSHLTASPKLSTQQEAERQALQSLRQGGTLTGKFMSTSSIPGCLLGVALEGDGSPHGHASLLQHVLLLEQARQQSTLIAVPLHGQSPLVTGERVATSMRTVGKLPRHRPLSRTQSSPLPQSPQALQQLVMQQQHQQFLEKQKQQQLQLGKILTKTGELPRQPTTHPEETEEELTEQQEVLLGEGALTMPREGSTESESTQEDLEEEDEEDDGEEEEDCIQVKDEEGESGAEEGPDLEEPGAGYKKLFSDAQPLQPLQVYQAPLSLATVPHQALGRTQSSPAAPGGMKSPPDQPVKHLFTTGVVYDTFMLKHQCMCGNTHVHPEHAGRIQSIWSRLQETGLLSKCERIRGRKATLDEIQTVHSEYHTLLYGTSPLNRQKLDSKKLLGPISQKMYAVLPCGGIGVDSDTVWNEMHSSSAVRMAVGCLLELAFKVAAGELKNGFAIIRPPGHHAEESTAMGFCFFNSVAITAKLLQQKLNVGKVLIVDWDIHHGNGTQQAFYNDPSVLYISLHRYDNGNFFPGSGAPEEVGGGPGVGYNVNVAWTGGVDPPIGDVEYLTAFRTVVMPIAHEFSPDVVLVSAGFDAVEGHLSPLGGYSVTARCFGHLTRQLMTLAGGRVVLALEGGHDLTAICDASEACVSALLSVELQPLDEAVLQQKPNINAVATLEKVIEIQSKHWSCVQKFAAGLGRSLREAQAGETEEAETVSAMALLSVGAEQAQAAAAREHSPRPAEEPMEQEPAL

[20] = test system: HL-60; experiment: Induction of cell cycle arrest in G0/G1 phase in human HL-60 cells at 0.5 to 1 times IC50 by PI staining based flow cytometry analysis; assay type: functional
[21] = test system: HL-60; experiment: Induction of apoptosis in human HL-60 cells assessed as disintegration of mitochondrial nuclear condensation at 0.5 to 1 times IC50 by DAPI staining based microscopic analysis; assay type: functional, cell-based
[22] = test system: HL-60; experiment: Induction of cell cycle arrest in G0/G1 phase in human HL-60 cells assessed as downregulation of cyclin D1 protein expression at 0.5 to 1 times IC50 by Western blot analysis; assay type: functional, cell-based
[23] = test system: A549; experiment: cells; assay type: functional, cell-based; conditions: Homo sapiens
Description: Antiproliferative activity against human A549 cells assessed as inhibition of cell growth by MTT assay

- Activity [1]: 31.3%
- Activity [2]: 12.8%
- Activity [5]: 16.9%
- Activity [6]: 127%
- Activity [7]: 104%
- IC50 [8]: 50 nM
- IC50 [9]: 147 nM
- Activity [11]: 104%
- Activity [12]: 85%
- Activity [14]: 69.7%
- Activity [15]: 97.3%
- IC50 [17]: 393 nM
- Activity [18]: 99.5%
- Activity [19]: 89.6%
- IC50 [23]: > 5000 nM
SMILES: NC(=O)c1cccc2[nH]c(-c3ccc(NCc4ccc(C(=O)Nc5ccccc5N)cc4)cc3)nc12
- Activity [3]: Active
- Activity [4]: Active
- Activity [10]: inactive
- Activity [13]: Active
- Activity [16]: Active
- Activity [20]: Dose-Dependent Effect
- Activity [21]: inactive
- Activity [22]: Active
